{"source": "patent US20250019350A1", "about": "“SYNTHESIS OF THE PROSTATE SPECIFIC MEMBRANE ANTIGEN (PSMA) RADIOLABELED INHIBITOR [18F]DCFPYL” (Progenics Pharmaceuticals, Inc, priority 2023, published 2025)", "key": {"[1]": {"assay": "Retention/recovery of [19F]DCFPyL on the HLB solvent exchange cartridge as a function of pH (load, wash, product samples)", "type": "physicochemical", "experimental": "The goal of this study was to characterize the impact of pH on the retention of [^18F]DCFPyL on the HLB solvent exchange cartridge. […] The pH of one solution was adjusted to 2 and a second to 4 by adding 1N HCl. A third solution was used without adjusting its native pH of 7.2. Using a BD syringe, 10 mL of each solution was spiked with [^19F]DCFPyL (50 μg) by adding 0.5 mL of a 100 μg/mL stock solution. Each spiked solution was loaded onto a HLB cartridge at a rate of approximately 2 mL/min. […] The eluent from each HLB cartridge was individually collected and identified as the “wash solution.” Each HLB cartridge was then individually eluted with 1 mL of ethanol, the samples collected and are identified as the “product sample.” The load solution and wash solution samples were analyzed using a drug product chemical impurity assay after a 1 to 10 mL dilution with saline, while the ethanolic product samples were analyzed following a 0.5 to 10 dilution with saline.\nThe goal of this study was to characterize the impact of pH on the retention of ^18F-DCFPyL on the HLB solvent exchange cartridge. […] The pH of one solution was adjusted to 2 and a second to 4 by adding 1N HCl. A third solution was used without adjusting its native pH of 7.2. At this pH the solution will be mainly sodium ascorbate. Using a BD syringe, 10 mL of each solution was spiked with ^19F-DCFPyL (50 μg) by adding 0.5 mL of a 100 μg/mL stock solution. Each spiked solution was loaded onto an HLB cartridge at a rate of approximately 2 mL/min and the solution collected after the HLB column is identified as the load solution. […] Each HLB cartridge was then individually eluted with 1 mL of ethanol, the solution collected after the HLB column is identified as the product sample. The load solution and wash solution samples were analyzed using the drug product chemical impurity assay after a 1 to 10 mL dilution with saline, while the ethanolic product samples were analyzed following a 0.5 to 10 mL dilution with saline."}, "[2]": {"assay": "HPLC/UV (264 nm) chemical impurity assay; ascorbic acid related impurity", "type": "physicochemical", "conditions": "development lot at 163.0 mCi/mL with ascorbic acid", "experimental": "Analytical HPLC method was used. The method employs UV detection at 264 nm for chemical impurities, and an Eckert & Ziegler model B-FC-1000 gamma detector for radiochemical assays.\nSince the peak has not been previously observed in preparations in the absence of ascorbic acid it is likely ascorbic acid related and was further investigated. A decayed sample from the lot produced was analyzed further and confirmed the presence of the peak, FIG. 35. […] The sample was assayed for chemical impurities at T=0, 4, 10 and 24 hours when held inverted at ambient conditions. […] The impurity only formed with radioactivity exposure but not when stored in light or dark at ambient conditions (see FIG. 37)."}}}
{"smiles": "O=C(O)CC[C@H](NC(=O)N[C@@H](CCCCNC(=O)c1ccc([18F])nc1)C(=O)O)C(=O)O", "note": "[Lot 18F-DCFPyL, 2-(3-{1-carboxy-5-[(6-[18F]fluoro-pyridine-3-carbonyl)-amino]-pentyl}ureido)-pentanedioic acid]", "values": [{"measurement": "retention of [18F]-DCFPyL by the HLB cartridge", "setting": "[1]; pH 2", "result": 98, "unit": "%"}, {"measurement": "retention of [18F]-DCFPyL by the HLB cartridge", "setting": "[1]; pH 4", "result": 81, "unit": "%"}, {"measurement": "chemical impurity at retention time approximately 4.6 minutes on the UV trace", "setting": "[2]", "result": 0.9, "unit": "µg/mL"}]}
